Experimental data as given in US9758484B2 (Asieris Pharmaceutical Technologies Co., Ltd., priority 2013, dated 2017).
Values joined by “and” are separate entries in the source; they are usually repeats but may differ in a detail not shown here. Equal entries are not always repeated.

Key:
[1] = Solubility tests of nitroxoline and nitroxoline salts in aqueous buffers and water; assay type: physicochemical; conditions: aqueous buffers pH 1.2 to 8, 25 °C, pH 1.2, aqueous buffer, thermodynamic from solid, all pHs tested, from pH 1.2 to 8; read-out: solubility at all pHs tested
Description: 1) Aqueous buffer solutions with varying pH were prepared as follows: • i. Water: distilled water; • ii. pH=1.2 buffer: 7.65 mL 36.5% HCl solution was diluted to 1000 mL with water; • iii. pH=4.5 buffer: 18 g sodium acetate and 9.8 mL acetic acid were diluted to 1000 mL with water; • iv. pH=5.0 buffer: sodium hydroxide was added to 0.2 mol/L monosodium phosphate (NaH2PO4) solution until the pH was adjusted to 5.0; • v. pH=6.0 buffer: 18 g sodium acetate were added into 20 mL acetic acid solution (1 M), and the mixture was diluted to 500 mL with water; • vi. pH=6.8 buffer: 250 mL of 0.2 M monopotassium phosphate (KH2PO4) solution were added to 118 mL of 0.2 M sodium hydroxide solution, and the mixture was diluted to 1000 mL with water; • vii. pH=7.4 buffer: 1.36 g monopotassium phosphate (KH2PO4) were added to 79 mL of 0.1 M sodium hydroxide solution, and the mixture was diluted to 200 mL with water; and • viii pH=8.0 buffer: 5.59 g potassium biphosphate (K2HPO4) and 0.41 g monopotassium. phosphate (KH2PO4) were added to 1000 mL water and mixed.
2) Solubility tests were performed generally as follows:
Under a temperature of 25±2° C., 10 mg of each salt sample was weighed and added to a 100 mL volumetric bottle. 0.25 mL buffer was added to the bottle, which was shaken vigorously for 30 seconds every 5 min.
If the sample was not completely dissolved, 0.7 mL of the same buffer was added, and dissolution was observed by the same shaking procedure.
If the sample was not completely dissolved, 8.5 mL of the same buffer was added, and dissolution was observed by the same shaking procedure.
If the sample was not completely dissolved, 85 mL of the same buffer was added, and dissolution was observed by the same shaking procedure.

[2] = In vivo urinary excretion of nitroxoline and nitroxoline salts in mice; set-up: species or system CD-1 ICR mice; conditions: 41.8 mg/kg
Description: Urine samples were collected in the following periods of time: 0-2, 2-6, 6-24 h. Due to the small volume of the urine from mice, the collecting system in the cage was washed with water at each collecting time. Urine samples and their wash samples were analyzed according to the same methods used in the beagle dog study (Example 24).
(§1) The same study was repeated with APL-1092, nitroxoline lysine salt.

[3] = humans, orally administered; cited from earlier work
[4] = In vivo urinary excretion of nitroxoline and nitroxoline salts in beagle dogs
Description: Urine samples were collected in the following periods of time: 0-2, 2-4, 4-6, 6-8, 8-24 h. Urine samples were analyzed by LC/MS/MS method utilizing an Agilent 1100 HPLC system with a CTC auto-sampler, an AB API4000 mass spectrometer, and a column of ACQUITY UPLC BEH C18 (2.1*50 mm) Dexamethasone was used as an internal standard. […] The range of linearity was determined to be 25˜5000 ng/mL.
as §1

## O=[N+]([O-])c1ccc(O)c2ncccc12 [APL-1202, nitroxoline, reference compound]
[1]
  solubility at 30 min: < 100 µg/mL
[2]; In Mice, 41.8 mg/Kg APL-1202 or equivalent dose
  24-Hr Accumulated drug in the urine: 79.8 µg
[2]; individual mice, oral, equivalent of 41.8 mg/Kg nitroxoline, 0-24 hr
  Total mass of nitroxoline in urine and wash: 124391 ng and 50517 ng and 23093 ng and 41201 ng and 88137 ng and 151622 ng
[2]; individual mice, oral, equivalent of 41.8 mg/Kg nitroxoline
  f (%): percentage of total mass of excreted drug versus the dose amount: 15.2% and 6.17% and 2.94% and 5.24% and 10.9% and 19.5%
[2]; individual mice, oral, equivalent of 41.8 mg/Kg nitroxoline, cage wash 0~2 hr
  Mass of nitroxoline, 0~2 wash: 2856 ng and 6652.8 ng and 784 ng and 4212 ng and 8250 ng and 2352 ng
[2]; individual mice, oral, equivalent of 41.8 mg/Kg nitroxoline, cage wash 2~6 hr
  Mass of nitroxoline, 2~6 wash: 1283 ng and 5325 ng and 957 ng and 2904 ng and 1530 ng and 346 ng
[2]; individual mice, oral, equivalent of 41.8 mg/Kg nitroxoline, cage wash 6~24 hr
  Mass of nitroxoline, 6~24 wash: 249 ng and 1428 ng and 2341 ng and 1558 ng and 1102 ng and 152 ng
[2]; individual mice, oral, equivalent of 41.8 mg/Kg nitroxoline, urine 0-2 hr
  Mass of nitroxoline in urine, 0-2 hr: 109552 ng and 10584 ng and 1360 ng and 21035 ng and 61040 ng and 137700 ng
[2]; individual mice, oral, equivalent of 41.8 mg/Kg nitroxoline, urine 2-6 hr
  Mass of nitroxoline in urine, 2-6 hr: 10404 ng and 26418 ng and 17600 ng and 11412 ng and 14715 ng and 11000 ng
[2]; individual mice, oral, equivalent of 41.8 mg/Kg nitroxoline, urine 6-24 hr
  Mass of nitroxoline in urine, 6-24 hr: 47.8 ng and 109 ng and 50.9 ng and 81 ng and 1500 ng and 71.5 ng
[2]; mean of mice, oral, equivalent of 41.8 mg/Kg nitroxoline, 0-24 hr
  Total mass of nitroxoline in urine and wash, Mean: 79827 ng
[2]; mean of mice, oral, equivalent of 41.8 mg/Kg nitroxoline
  f (%): percentage of total mass of excreted drug versus the dose amount, Mean: 10%
[2]; mean of mice, oral, equivalent of 41.8 mg/Kg nitroxoline, cage wash 0~2 hr
  Mass of nitroxoline, 0~2 wash, Mean: 4184 ng
[2]; mean of mice, oral, equivalent of 41.8 mg/Kg nitroxoline, cage wash 2~6 hr
  Mass of nitroxoline, 2~6 wash, Mean: 2057 ng
[2]; mean of mice, oral, equivalent of 41.8 mg/Kg nitroxoline, cage wash 6~24 hr
  Mass of nitroxoline, 6~24 wash, Mean: 1138 ng
[2]; mean of mice, oral, equivalent of 41.8 mg/Kg nitroxoline, urine 0-2 hr
  Mass of nitroxoline in urine, 0-2 hr, Mean: 56879 ng
[2]; mean of mice, oral, equivalent of 41.8 mg/Kg nitroxoline, urine 2-6 hr
  Mass of nitroxoline in urine, 2-6 hr, Mean: 15258 ng
[2]; mean of mice, oral, equivalent of 41.8 mg/Kg nitroxoline, urine 6-24 hr
  Mass of nitroxoline in urine, 6-24 hr, Mean: 310 ng
[3]
  half-life (t1/2): 2.63 h
[4]; In Dogs, 75 mg APL-1202 or equivalent amount
  24-Hr Accumulated drug in the urine: 97 µg
[4]; individual dogs, oral tablet, 75 mg nitroxoline equivalent
  f (%): percentage of total mass of excreted drug versus the dose amount: 0.074% and 0.11% and 0.205%
[4]; individual dogs, oral tablet, 75 mg nitroxoline equivalent, 0-24 hr
  Total mass of nitroxoline in urine: 55350 ng and 82489 ng and 153888 ng
[4]; individual dogs, oral tablet, 75 mg nitroxoline equivalent, collection 0-2 hr
  Mass of nitroxoline in urine, 0-2 hr: 5670 ng and 60420 ng and 105600 ng
[4]; individual dogs, oral tablet, 75 mg nitroxoline equivalent, collection 2-4 hr
  Mass of nitroxoline in urine, 2-4 hr: 0 ng and 13005 ng and 5502 ng
[4]; individual dogs, oral tablet, 75 mg nitroxoline equivalent, collection 4-6 hr
  Mass of nitroxoline in urine, 4-6 hr: 0 ng and 817 ng and 28696 ng
[4]; individual dogs, oral tablet, 75 mg nitroxoline equivalent, collection 6-8 hr
  Mass of nitroxoline in urine, 6-8 hr: 0 ng and 2582 ng and 5808 ng
[4]; individual dogs, oral tablet, 75 mg nitroxoline equivalent, collection 8-24 hr
  Mass of nitroxoline in urine, 8-24 hr: 49680 ng and 5664 ng and 8282 ng
[4]; mean of dogs, oral tablet, 75 mg nitroxoline equivalent
  f (%): percentage of total mass of excreted drug versus the dose amount, Mean: 0.13%
[4]; mean of dogs, oral tablet, 75 mg nitroxoline equivalent, 0-24 hr
  Total mass of nitroxoline in urine, Mean: 97242 ng
[4]; mean of dogs, oral tablet, 75 mg nitroxoline equivalent, collection 0-2 hr
  Mass of nitroxoline in urine, 0-2 hr, Mean: 57230 ng
[4]; mean of dogs, oral tablet, 75 mg nitroxoline equivalent, collection 2-4 hr
  Mass of nitroxoline in urine, 2-4 hr, Mean: 9254 ng
[4]; mean of dogs, oral tablet, 75 mg nitroxoline equivalent, collection 4-6 hr
  Mass of nitroxoline in urine, 4-6 hr, Mean: 14757 ng
[4]; mean of dogs, oral tablet, 75 mg nitroxoline equivalent, collection 6-8 hr
  Mass of nitroxoline in urine, 6-8 hr, Mean: 4195 ng
[4]; mean of dogs, oral tablet, 75 mg nitroxoline equivalent, collection 8-24 hr
  Mass of nitroxoline in urine, 8-24 hr, Mean: 21209 ng
